# Assay results as given in US20070020193A1, “Dronabinol compositions and methods for using same” (priority 2005, published 2007).
# Assay: Example 2 multiple rising dose inhaled delta-9-THC study: plasma pharmacokinetics
# Experimental: A randomized, double-blind, placebo-controlled, multiple rising dose safety, tolerability, pharmacokinetic and pharmacodynamic study to assess two dose levels of inhaled delta-9-THC was conducted. Dose levels were studied in ascending order. Two consecutive groups (n=9/group) of healthy subjects were studied (Groups I and II). […] There was a lapse of at least 10 days between the groups for interim safety and pharmacokinetic analysis. Two dose levels were studied in ascending order. […] Subjects in each treatment Group (I or II) received single and multiple doses of inhaled delta-9-THC according to the following schedule:
# For both dose levels, the first and the last dose of study drug was given under fasted conditions. Subjects were confined to the study site from the evening of Day −2 (Day 1 is the day of administration of the first dose of study drug) until the 120-hour blood sample following the final dose of study drug, resulting in an 18-day confinement period for subjects in Group I and a 25-day confinement period for Group II. Between the completion of Group I and the start of Group II, an interim safety and pharmacokinetic analysis was performed. Based on the results of the interim analyses, the dose level for investigation in Group II was determined.
# Two MDI dosage strengths were used corresponding to the same formulations used in Example 1: one delivering 0.3 mg delta-9-THC (or placebo) per actuation and one delivering 1.2 mg delta-9-THC (or placebo) per actuation. The MDI consisted of a pressurized (via propellants) container and a metered-dose valve. The propellants provided the necessary force to expel the drug, and also acted as a solvent and diluent. The canister unit was provided within a mouthpiece (oral adapter), to expel an exact amount of drug, in the proper particle size distribution, upon each actuation. Two basic formulations containing 0.3 and 1.2 mg of delta-9-THC per 50 μL were developed with propellant 1,1,1,2 tetrafluoroethane 134a (HFA 134a), and ethanol as solvent. The formulations were made in accordance with the composition used in Example 1.
# Whole blood samples were collected according to the assessment flowchart in EDTA tubes through venepuncture or indwelling catheter. Samples were immediately placed on ice and subsequently centrifuged within 30 minutes at 1,500 g for 10 minutes. Plasma was transferred into a 5 ml screw cap polypropylene tube, stoppered and stored at below minus 20° C. until transfer to the analytical laboratory for analysis. […] The measurement ranges were 0.05-30 ng/ml for delta-9-THC, 0.04-30 ng/ml for 11-OH-THC, and 0.25-10 ng/ml for THC-COOH.
# For Example 2: The statistical analysis encompassed an exploratory analysis of the single and multiple dose pharmacokinetics and dose proportionality of two dose levels of inhaled delta-9-THC in healthy subjects. Descriptive statistics included number of subjects, mean, standard deviation, coefficient of variation (%) and geometric mean for all pharmacokinetic parameters.
# The exploratory analysis was performed on the logarithms of the dose-normalized pharmacokinetic parameters AUC(0-inf), AUC(0-t), AUC(0-τ) and Cmax. Dose proportionality was tested both at single dose and at multiple dose (steady state) by comparing the dose groups for all pharmacokinetic parameters by an analysis of variance with dose as fixed effect.
# Dose proportionality was tested by the contrast between the dose groups. For this contrast on the logarithmic scale, p-values were given. After anti-logarithmic transformation, the resultant ratios of geometric means and 90% confidence intervals were given.
# Accumulation was tested by comparing the steady state values for AUC(0-τ) with the single dose values for AUC(0-τ) by a mixed model analysis of variance with dose and day (with levels single dose and steady state) as fixed effects and subject within dose as random effect.
smiles,measurement,setting,value
"CCCCCc1cc(O)c2c(c1)OC(C)(C)C1CCC(C(=O)O)=CC21 (stereo not drawn) [THC-COOH, delta-9-tetrahydrocannbinol-carboxylic acid]",achievement of steady state,1.2 mg delta-9-THC three times daily,lack of steady state
same,"Cmax, Geometric Mean (Range)","1.2 mg m.d. (three times daily), Day 12, Group I",7.97 (6.03-10.9) ng/mL
same,"AUC(0-8), Arithmetic Mean (SD)","1.2 mg m.d., Day 12, Group I",51.9 (14.7) ng · h/mL
same,"AUC(0-8), Geometric Mean (Range)","1.2 mg m.d., Day 12, Group I",50.1 (34.1-69.8) ng · h/mL
same,"Cmax, Arithmetic Mean (SD)","1.2 mg m.d., Day 12, Group I",8.15 (1.87) ng/mL
same,"tmax, Arithmetic Mean (SD)","1.2 mg m.d., Day 12, Group I",0.86 (0.88) h
same,"tmax, median (range)","1.2 mg m.d., Day 12, Group I",0.33 (0.25-2.00) h
same,"t½, Arithmetic Mean (SD)","1.2 mg m.d., Day 12, Group I",32.1 (9.07) h
same,"t½, Geometric Mean (Range)","1.2 mg m.d., Day 12, Group I",31.0 (23.2-43.8) h
same,"AUC(0-8), Arithmetic Mean (SD)","1.2 mg s.d., Day 1",18.5 (3.85) ng · h/mL
same,"AUC(0-8), Geometric Mean (Range)","1.2 mg s.d., Day 1",18.2 (13.0-24.2) ng · h/mL
same,"AUC(0-inf), Arithmetic Mean (SD)","1.2 mg s.d., Day 1",83.6 (18.5) ng · h/mL
same,"AUC(0-inf), Geometric Mean (Range)","1.2 mg s.d., Day 1",82.0 (60.5-110) ng · h/mL
same,"tmax, Arithmetic Mean (SD)","1.2 mg s.d., Day 1",1.54 (0.75) h
same,"tmax, median (range)","1.2 mg s.d., Day 1",2.00 (0.25-2.00) h
same,"t½, Arithmetic Mean (SD)","1.2 mg s.d., Day 1",33.9 (12.8) h
same,"t½, Geometric Mean (Range)","1.2 mg s.d., Day 1",32.0 (23.9-50.6) h
same,"Cmax, Arithmetic Mean (SD)","1.2 mg s.d., Day 1, plasma",3.81 (0.56) ng/mL
same,"Cmax, Geometric Mean (Range)","1.2 mg s.d., Day 1, plasma",3.77 (2.81-4.40) ng/mL
same,"Cmax, Geometric Mean (Range)","3.6 mg m.d. (three times daily), Day 19, Group II",25.5 (13.2-45.0) ng/mL
same,"AUC(0-8), Arithmetic Mean (SD)","3.6 mg m.d., Day 19, Group II",182 (97.5) ng · h/mL
same,"AUC(0-8), Geometric Mean (Range)","3.6 mg m.d., Day 19, Group II",159 (75.5-317) ng · h/mL
same,"Cmax, Arithmetic Mean (SD)","3.6 mg m.d., Day 19, Group II",28.1 (12.7) ng/mL
same,"tmax, Arithmetic Mean (SD)","3.6 mg m.d., Day 19, Group II",1.03 (0.79) h
same,"tmax, median (range)","3.6 mg m.d., Day 19, Group II",0.75 (0.33-2.00) h
same,"t½, Arithmetic Mean (SD)","3.6 mg m.d., Day 19, Group II",39.6 (15.3) h
same,"t½, Geometric Mean (Range)","3.6 mg m.d., Day 19, Group II",37.4 (24.0-62.3) h
same,"AUC(0-8), Arithmetic Mean (SD)","3.6 mg s.d., Day 1",47.1 (17.5) ng · h/mL
same,"AUC(0-8), Geometric Mean (Range)","3.6 mg s.d., Day 1",44.5 (30.2-74.4) ng · h/mL
same,"AUC(0-inf), Arithmetic Mean (SD)","3.6 mg s.d., Day 1",172 (85.6) ng · h/mL
same,"AUC(0-inf), Geometric Mean (Range)","3.6 mg s.d., Day 1",152 (64.8-283) ng · h/mL
same,"tmax, Arithmetic Mean (SD)","3.6 mg s.d., Day 1",2.33 (0.52) h
same,"tmax, median (range)","3.6 mg s.d., Day 1",2.00 (2.00-3.00) h
same,"t½, Arithmetic Mean (SD)","3.6 mg s.d., Day 1",23.8 (11.3) h
same,"t½, Geometric Mean (Range)","3.6 mg s.d., Day 1",21.7 (11.3-39.2) h
same,"Cmax, Arithmetic Mean (SD)","3.6 mg s.d., Day 1, plasma",8.75 (3.16) ng/mL
same,"Cmax, Geometric Mean (Range)","3.6 mg s.d., Day 1, plasma",8.34 (6.01-14.4) ng/mL
same,achievement of steady state,3.6-mg dose level three times daily,achieved after seven or eight days of dosing
same,accumulation during multiple dosing,8-hours dosing interval,accumulation occurred during multiple dosing
same,"Ratio AUC(0-8) m.d./AUC(0-8) s.d. (Accumulation factor), Mean","Group I, 1.2 mg",2.90
same,"Ratio AUC(0-8) m.d./AUC(0-inf) s.d. (Linearity), Mean","Group I, 1.2 mg",0.65
same,"Ratio AUC(0-8) m.d./AUC(0-8) s.d. (Accumulation factor), Mean","Group II, 3.6 mg",3.92
same,"Ratio AUC(0-8) m.d./AUC(0-inf) s.d. (Linearity), Mean","Group II, 3.6 mg",1.11
same,dose proportionality: geometric mean ratio (3.6 mg:1.2 mg) of dose-normalized AUC(0-8) (90% confidence interval),Multiple dose,1.05 (0.65-1.71)
same,dose proportionality: geometric mean ratio (3.6 mg:1.2 mg) of dose-normalized Cmax (90% confidence interval),Multiple dose,1.07 (0.71-1.60)
same,dose proportionality: geometric mean ratio (3.6 mg:1.2 mg) of dose-normalized AUC(0-8) (90% confidence interval),Single dose,0.82 (0.60-1.11)
same,dose proportionality: geometric mean ratio (3.6 mg:1.2 mg) of dose-normalized AUC(0-inf) (90% confidence interval),Single dose,0.62 (0.39-0.98)
same,dose proportionality: geometric mean ratio (3.6 mg:1.2 mg) of dose-normalized AUC(0-t) (90% confidence interval),Single dose,0.61 (0.34-1.09)
same,dose proportionality: geometric mean ratio (3.6 mg:1.2 mg) of dose-normalized Cmax (90% confidence interval),Single dose,0.74 (0.56-0.96)
same,"exposure, fold higher compared to the parent",after both single and multiple dose administration,approximately 10 fold
same,"Cmax, fold lower compared to the parent compound",after single dosing,5 fold
same,dose proportionality of pharmacokinetic parameters,after single or multiple dose administration,not found to deviate significantly
same,"plasma concentration-time curve, elimination profile",both dose levels,almost no distribution phase and a multi-phasic elimination phase
same,time of peak plasma concentration,"both dose levels, post-dose",between 15 minutes and 3 hours post-dose
same,ratios of AUC(0-8) after multiple dosing versus AUC(0-inf) after single dose (linearity),in vivo,did not deviate clearly or significantly from unity
same,Cmax and AUC values versus dose,"single and multiple dose administration, 1.2 and 3.6 mg",Dose-related increases
same,Terminal elimination half-lives (summary estimate),"summary, best estimated after multiple dosing",~30 h
